Consider eight compounds from patent US6380384B1, “1,2-dihydro-2-oxoquinoline derivatives” (Taisho Pharmaceutical Co., Ltd., priority 1997, dated 2002).

What is called IC50 is the concentration needed to halve the response being measured. A low value points to higher potency.

For the assay, the target named is T1, mitochondrial diazepam binding inhibitor receptor (MDR) (Rattus norvegicus, UniProt P16257).
T1 construct: Crude mitochondria fractions prepared from rat cerebral cortex were used as a receptor sample; from tissue; host or cells: rat cerebral cortex, crude mitochondria fraction
T1 sequence (P16257 whole entry): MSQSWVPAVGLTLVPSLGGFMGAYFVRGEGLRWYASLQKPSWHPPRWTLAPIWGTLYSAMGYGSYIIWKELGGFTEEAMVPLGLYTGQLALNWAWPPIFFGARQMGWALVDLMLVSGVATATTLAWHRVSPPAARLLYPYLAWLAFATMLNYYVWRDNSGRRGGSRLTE
Nature of the assay: MDR receptor binding assay ([3H]PK11195 displacement, crude mitochondria fractions from rat cerebral cortex). Particulars: 50% inhibition of [3H]PK11195 (2 nM) binding; rat cerebral cortex crude mitochondria fraction, 4° C., 90 minutes. The method, then: Experiment [MDR Receptor Binding Assay]
Crude mitochondria fractions prepared from rat cerebral cortex were used as a receptor sample, and [^3H]PK11195 was used as a [^3H]-labeled ligand.
A binding assay using the [^3H]-labeled ligand was carried out according to the following method as described in Journal of Pharmacology and Experimental Therapeutics, 262, 971(1992).
Preparation of Receptor Sample: Rat cerebral cortex was homogenized using a Teflon-coated homogenizer in a 10 mM HEPES buffer (pH 7.4) containing 0.32 M sucrose in ten volumes of the wet weight. The homogenate was centrifuged at 900×g for 10 minutes, and the resulting supernatant was centrifuged at 9,000×g for 10 minutes. The precipitate was suspended in a HEPES buffer to give a protein concentration of 1 mg/ml, and centrifuged at 12,000×g for 10 minutes. The resulting precipitate was suspended in a 50 mM HEPES buffer (pH 7.4) to give a crude mitochondria fraction.
MDR Binding Assay:. Mitochondria sample (1.0 mg protein/ml), [^3H]PK11195 (2 nM) and the test drug were reacted at 4° C. for 90 minutes.
After completion of the reaction, the reaction mixture was filtered with suction through a glass filter (GF/B) treated with 0.3% polyethyleneimine, and the radioactivity on the filter was measured by a liquid scintillation spectrometer.
The binding at the reaction in the presence of 10 μM PK11195 was defined as non-specific binding of [^3H]PK11195, and the difference between total binding and non-specific binding was defined as specific binding.
For the compound `CCCCCCN(CCCCCC)C(=O)c1cc2ccccc2n(Cc2cccnc2)c1=O` [Compound 19, N,N-dihexyl-1-(3-picolyl)-1,2-dihydro-2-oxoquinoline-3-carboxamide], the IC50 stood at 0.368 nM.

For `CCCCCCCCCCN(CCCCCCCCCC)C(=O)c1cc2ccccc2n(Cc2ccccc2)c1=O` [Compound 06], the IC50 was 53.4 nM.

For the compound `CCCCCCN(CCCCCC)C(=O)c1cc2ccc(Cl)cc2n(Cc2ccccc2)c1=O` [Compound 23], the IC50 stood at 0.132 nM. This IC50 is about 400-fold lower than that of the compound before.

Turning to `CCCCCCN(CCCCCC)C(=O)c1cc2ccccc2n(Cc2ccccc2)c1=O` [Compound 05], the IC50 was 0.159 nM.

Compound `CCCCCCN(CCCCCC)C(=O)c1cc2ccccc2n(Cc2ccncc2)c1=O` [Compound 20] gave an IC50 of 0.192 nM. The IC50 values of the last two compounds are within 1.5-fold of each other.

Compound `CCCCCCN(CCCCCC)C(=O)c1cc2ccccc2n(Cc2ccccn2)c1=O` [Compound 18] registered an IC50 of 0.404 nM.

In turn, `CCCN(CCC)C(=O)c1cc2ccccc2n(Cc2ccccc2)c1=O` [Compound 04] yielded an IC50 of 1.71 nM.

Take `CCCCCCN(CCCCCC)C(=O)c1cc2ccccc2n(CCc2ccccc2)c1=O` [Compound 21]: the IC50 worked out at 6.58 nM.
